Laboratory results published in US20230077362A1 (CORTEVA AGRISCIENCE LLC, priority 2019, published 2023).

Assays:
[1] = tested on: Cabbage Looper (Trichoplusia ni) ("CL"), second instar larvae; assay: Bioassay on cabbage looper (CL), 128-well diet tray assay; assay type: in vivo; settings: Trichoplusia ni, read-out: CL rating
Method in brief: (§1)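 Sealed trays, 25° C., 14:10 light:dark, 5–7 d. Per-well % mortality recorded, mean of eight wells reported.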

[2] = tested on: Beet Armyworm (Spodoptera exigua) ("BAW"), second instar larvae; assay: Bioassay on beet armyworm (BAW), 128-well diet tray assay; assay type: in vivo; settings: Spodoptera exigua, read-out: BAW rating
Method in brief: as §1

SMILES: CCCc1ccc(C)cc1N1C(=O)CS/C1=N\C(=O)Nc1ccc(-c2nnc(-c3ccc(OC(F)(F)F)cc3)o2)cc1F [Compound J608, (Z)-1-(2-Fluoro-4-(5-(4-(trifluoromethoxy)phenyl)-1,3,4-oxadiazol-2-yl)phenyl)-3-(3-(5-methyl-2-propylphenyl)-4-oxothiazolidin-2-ylidene)urea]
- pest or weed control at 50 µg/cm2 [1]: 50 to 100%
- pest or weed control at 50 µg/cm2 [2]: 50 to 100%

SMILES: COCc1ccc(C)cc1N1C(=O)CS/C1=N\C(=O)Nc1ccc(-c2nnc(-c3ccc(OC(F)(F)F)cc3)o2)cc1F [Compound J609, (Z)-1-(2-Fluoro-4-(5-(4-(trifluoromethoxy)phenyl)-1,3,4-oxadiazol-2-yl)phenyl)-3-(3-(2-(methoxymethyl)-5-methylphenyl)-4-oxothiazolidin-2-ylidene)urea]
- pest or weed control at 50 µg/cm2 [1]: 50 to 100%
- pest or weed control at 50 µg/cm2 [2]: 50 to 100%

SMILES: CCOCc1ccc(C)cc1N1C(=O)CS/C1=N\C(=O)Nc1ccc(-c2nnc(-c3ccc(OC(F)(F)F)cc3)o2)cc1F [Compound J610, (Z)-1-(3-(2-(Ethoxymethyl)-5-methylphenyl)-4-oxothiazolidin-2-ylidene)-3-(2-fluoro-4-(5-(4-(trifluoromethoxy)phenyl)-1,3,4-oxadiazol-2-yl)phenyl)urea]
- pest or weed control at 50 µg/cm2 [1]: 50 to 100%
- pest or weed control at 50 µg/cm2 [2]: 50 to 100%

SMILES: CN(C)c1ccc(C(F)(F)F)c(N2C(=O)CS/C2=N\C(=O)Nc2ccc(-c3nnc(-c4ccc(OC(F)(F)F)cc4)o3)cc2F)c1 [Compound J611, (Z)-1-(3-(5-(Dimethylamino)-2-(trifluoromethyl)phenyl)-4-oxothiazolidin-2-ylidene)-3-(2-fluoro-4-(5-(4-(trifluoromethoxy)phenyl)-1,3,4-oxadiazol-2-yl)phenyl)urea]
- pest or weed control at 50 µg/cm2 [1]: 50 to 100%
- pest or weed control at 50 µg/cm2 [2]: 50 to 100%

SMILES: COCc1ccc(N(C)C)cc1N1C(=O)CS/C1=N\C(=O)Nc1ccc(-c2nnc(-c3ccc(OC(F)(F)F)cc3)o2)cc1F [Compound J612, (Z)-1-(3-(5-(Dimethylamino)-2-(methoxymethyl)phenyl)-4-oxothiazolidin-2-ylidene)-3-(2-fluoro-4-(5-(4-(trifluoromethoxy)phenyl)-1,3,4-oxadiazol-2-yl)phenyl)urea]
- pest or weed control at 50 µg/cm2 [1]: 50 to 100%
- pest or weed control at 50 µg/cm2 [2]: 50 to 100%

SMILES: Cc1ccc(C(C)C)c(N2C(=O)CS/C2=N\C(=O)Nc2ccc(-c3cn(-c4ccc(S(F)(F)(F)(F)F)cc4)cn3)cc2C)c1 [Compound J613, (Z)-1-(3-(2-Isopropyl-5-methylphenyl)-4-oxothiazolidin-2-ylidene)-3-(2-methyl-4-(1-(4-(pentafluoro-λ^6-sulfaneyl)phenyl)-1H-imidazol-4-yl)phenyl)urea]
- pest or weed control at 50 µg/cm2 [1]: 50 to 100%
- pest or weed control at 50 µg/cm2 [2]: 50 to 100%

SMILES: COC(C)c1ccc(C)cc1N1C(=O)CS/C1=N\C(=O)Nc1ccc(-c2cn(-c3ccc(S(F)(F)(F)(F)F)cc3)cn2)cc1C (stereo not drawn) [Compound J614, (Z)-1-(3-(2-(1-Methoxyethyl)-5-methylphenyl)-4-oxothiazolidin-2-ylidene)-3-(2-methyl-4-(1-(4-(pentafluoro-λ^6-sulfaneyl)phenyl)-1H-imidazol-4-yl)phenyl)urea]
- pest or weed control at 50 µg/cm2 [1]: 50 to 100%
- pest or weed control at 50 µg/cm2 [2]: 50 to 100%

SMILES: CCOCc1ccc(C)cc1N1C(=O)CS/C1=N\C(=O)Nc1ccc(-c2cn(-c3ccc(S(F)(F)(F)(F)F)cc3)cn2)cc1C [Compound J615, (Z)-1-(3-(2-(Ethoxymethyl)-5-methylphenyl)-4-oxothiazolidin-2-ylidene)-3-(2-methyl-4-(1-(4-(pentafluoro-λ^6-sulfaneyl)phenyl)-1H-imidazol-4-yl)phenyl)urea]
- pest or weed control at 50 µg/cm2 [1]: 50 to 100%
- pest or weed control at 50 µg/cm2 [2]: 50 to 100%

SMILES: Cc1ccc(COCC(F)(F)F)c(N2C(=O)CS/C2=N\C(=O)Nc2ccc(-c3cn(-c4ccc(S(F)(F)(F)(F)F)cc4)cn3)cc2C)c1 [Compound J616, (Z)-1-(3-(5-Methyl-2-((2,2,2-trifluoroethoxy)methyl)phenyl)-4-oxothiazolidin-2-ylidene)-3-(2-methyl-4-(1-(4-(pentafluoro-λ^6-sulfaneyl)phenyl)-1H-imidazol-4-yl)phenyl)urea]
- pest or weed control at 50 µg/cm2 [1]: 50 to 100%
- pest or weed control at 50 µg/cm2 [2]: 50 to 100%
